Measured values from patent US8314085B2, “Agent for overcoming resistance to anti-cancer agent” (Nippon Chemiphar Co., Ltd., priority 2006, dated 2012).
Counter-ions that a name gives are not always drawn. Like-named read-outs stand apart in the source and are kept apart here.

Key:
[1] = tested on: BCRP-overexpressing cells (Flp-In-293/BCRP); test: Influence on anti-cancer agent (SN-38) resistance in BCRP-overexpressing cells, MTT assay; type: cell-based; conditions: Flp-In-293/ABCG2 cells; for degree of reversing resistance to SN-38: at the concentration of 5 μmol/L, 72 hours
Procedure: (§1) The cells were cultured under the atmosphere of 5% CO2 using DMEM containing FCS (10%), penicillin (100 U/mL), streptomycin (100 μg/mL), amphotericin B (250 ng/mL), hygromycin B (100 μg/mL), and L-glutamine (2 mmol/L).
(§2) The resistance of Flp-In-293 cells to an agent was profiled by counting living cells using MTT assay. In more detail, the cells were seeded in 96-wells plate at the concentration of 2×10^3 cells/well, and cultured for 24 hours.

BCRP [2] = target: T1, BCRP (Homo sapiens, UniProt Q9UNQ0); test: BCRP-mediated methotrexate transport in membrane vesicles of BCRP-expressing Sf9 cells; conditions: for inhibitory action on BCRP-mediated methotrexate transport: at concentration of 100 μmol/L
T1 sequence (Q9UNQ0 1-655): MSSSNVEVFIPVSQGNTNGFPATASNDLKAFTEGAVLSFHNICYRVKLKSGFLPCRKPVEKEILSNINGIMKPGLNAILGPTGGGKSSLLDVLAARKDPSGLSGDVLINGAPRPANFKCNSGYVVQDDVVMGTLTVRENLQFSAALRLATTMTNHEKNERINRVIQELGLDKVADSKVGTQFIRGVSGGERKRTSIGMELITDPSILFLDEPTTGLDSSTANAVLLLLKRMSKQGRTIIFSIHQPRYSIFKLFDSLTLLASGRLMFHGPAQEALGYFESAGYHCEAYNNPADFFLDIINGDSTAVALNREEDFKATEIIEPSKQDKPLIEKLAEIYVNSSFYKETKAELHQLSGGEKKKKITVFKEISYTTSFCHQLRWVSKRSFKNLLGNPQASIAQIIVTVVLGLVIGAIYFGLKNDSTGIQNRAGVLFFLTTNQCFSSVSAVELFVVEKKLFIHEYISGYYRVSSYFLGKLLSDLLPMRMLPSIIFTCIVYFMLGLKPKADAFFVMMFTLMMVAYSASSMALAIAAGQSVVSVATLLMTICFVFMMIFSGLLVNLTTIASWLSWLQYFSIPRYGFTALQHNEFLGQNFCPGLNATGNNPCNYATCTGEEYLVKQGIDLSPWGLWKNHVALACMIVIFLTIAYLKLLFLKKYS
Procedure: (§3) In the experiment, plasma membrane was prepared from BCRP-expressing Sf9 cells.
(§4) The activity of methotrexate transport was measured using 96 wells-plate according to the following method.
(§5) Preparation and Composition of Reaction Solution
(§6) 50 μL of solution containing sucrose (250 mmol/L) and Tris/Hepes (10 mmol/L, pH: 7.4)
(§7) 30 μL of solution containing ATP (3.33 mmol/L), creatine phosphate (33.3 mmol/L), and MgCl2 (33.3 mmol/L)
(§8) (or solution containing creatine phosphate (33.3 mmol/L) and MgCl2 (33.3 mmol/L))
5 μL of creatine kinase (2 mg/mL)
(§9) 2 μL of [^3H]methotrexate (10 mmol/L, final concentration: 200 μmol/L)
(§10) 10 μL of membrane sample of BCRP-expressing Sf9 cells (total protein: 50 μg)
(§11) The reaction solution was incubated at 37° C. for 20 minutes. 1 mL of ice-cooled solution containing sucrose (250 mmol/L), EDTA (2 mmol/L), and Tris/Hepes (10 mmol/L, pH: 7.4) was quickly added to the reaction solution to stop the reaction. Each 270 μL of the mixed solution was poured into each well of MultiScreen™ (Millipore), and sucked. The wells were washed four times with 200 μL of ice-cooled solution containing sucrose (250 mmol/L) and Tris/Hepes (10 mmol/L, pH: 7.4). The radioactivity trapped on a filter of each well was measured. The amount of methotrexate transported into the membrane vesicle was calculated from the radioactivity.

Flp-In-293/ABCG2 cells = test: Toxicity to the cells (viability, MTT assay); conditions: at or up to the concentration of 10 μmol/L
Procedure: as §1, §2

BCRP [3] = target: T1, BCRP
Procedure: as §3, §4, §5, §6, §7, §8
5 μL of creatine kinase (2 mg/mL)
as §9, §10, §11

## N#Cc1cc(-c2nc3cncnc3s2)ccc1Oc1ccc(F)cc1 [Compound 2, 2-[3-cyano-4-(4-fluorophenoxy)phenyl]thiazolo[5,4-d]pyrimidine]
[1]
  effect of overcoming resistance to SN-38 (in words): reversed the resistance of Flp-In-293/ABCG2 cells to SN-38 in a concentration-dependent manner
  degree of reversing resistance to SN-38: about 90%
BCRP [2]
  IC50: 1.1 µM

## N#Cc1cc(-c2nc3c(O)ncnc3s2)ccc1Oc1ccccc1 [Compound 5, 2-(3-cyano-4-phenoxyphenyl)-4-hydroxythiazolo[5,4-d]pyrimidine]
[1]
  degree of reversing resistance to SN-38: about 96%
Flp-In-293/ABCG2 cells
  toxicity to the cells / effect on viability: did not exhibit toxicity to the cells

## O=c1[nH]c(=O)c2c[nH]nc2[nH]1 [oxypurinol]
[1]
  effect of overcoming resistance to SN-38 (in words): did not exhibit an effect of overcoming resistance to SN-38
BCRP [2]
  inhibitory action on BCRP-mediated methotrexate transport: did not exhibit an inhibitory action

## CC(C)(C)COc1ccc(-n2cc(C(=O)O)cn2)cc1C#N [Compound Y-700, 1-[3-cyano-4-(2,2-dimethylpropoxy)phenyl]-1H-pyrazole-4-carboxylic acid]
[1]
  effect of overcoming resistance to SN-38 (in words): did not exhibit an effect of overcoming the resistance in the concentration not exhibiting toxicity to the cells

## N#Cc1cc(-c2n[nH]c(-c3ccncc3)n2)ccn1 [FYX-051, 4-[5-pyridin-4-yl-1H-[1,2,4]triazol-3-yl]pyridine-2-carbonitrile]
[1]
  degree of reversing resistance to SN-38: about 39%
BCRP [2]
  IC50: 0.77 µM

## N#Cc1cc(-c2nc3c(O)ncnc3s2)ccc1Oc1ccccc1 [Compound 3, potassium salt of 2-(3-cyano-4-phenoxyphenyl)-4-hydroxythiazolo[5,4-d]pyrimidine]
BCRP [3]
  IC50: 0.23 µM

## N#Cc1cc(-c2nc3c([O-])ncnc3s2)ccc1Oc1ccc(F)cc1.[K+] [Compound 1, potassium salt of 2-[3-cyano-4-(4-fluorophenoxy)phenyl]-4-hydroxythiazolo[5,4-d]pyrimidine]
[1]
  effect of overcoming resistance to SN-38 (in words): reversed the resistance of Flp-In-293/ABCG2 cells to SN-38 in a concentration-dependent manner
  degree of reversing resistance to SN-38: about 96%
Flp-In-293/ABCG2 cells
  toxicity to the cells / effect on viability: did not affect viability
BCRP [2]; read-out: IC50 (concentration inhibiting methotrexate transport by 50%), [3H]methotrexate 200 μmol/L, 37° C., 20 minutes
  IC50: 0.46 µM

## N#Cc1cc(-c2nc3cncnc3s2)ccc1Oc1ccccc1 [Compound 4, 2-(3-cyano-4-phenoxyphenyl)thiazolo[5,4-d]pyrimidine]
BCRP [2]
  IC50: 0.66 µM

## Oc1ncnc2[nH]ncc12 [allopurinol]
[1]
  effect of overcoming resistance to SN-38 (in words): did not exhibit an effect of overcoming resistance to SN-38
Flp-In-293/ABCG2 cells
  toxicity to the cells / effect on viability: did not exhibit toxicity to the cells
BCRP [2]
  inhibitory action on BCRP-mediated methotrexate transport: did not exhibit an inhibitory action

## Cc1nc(-c2ccc(OCC(C)C)c(C#N)c2)sc1C(=O)O [TMX-67, Febuxostat]
[1]
  degree of reversing resistance to SN-38: about 82%
Flp-In-293/ABCG2 cells
  toxicity to the cells / effect on viability: did not exhibit toxicity to the cells
BCRP [2]
  IC50: 0.25 µM
